Columns and labels:
[1] = biological target: T1, NR1H3 (Homo sapiens, UniProt Q13133); experiment: Osteogenic marker mRNA levels in MPCs, Ad-NR1H3+T0901317 (rtRT-PCR); format: cell-based; conditions: Ad-NR1H3+T0901317 (1 μM); up-regulated = 4-fold higher than Ad-eGFP or Ad-luciferase; one or more time points
T1 construct: amplification of the complete open reading frame from ATG start codon to the stop codon of drugable genes; expressed in transfected cells; host or cells: primary human bone-marrow mesenchymal progenitor cells (MPCs), adenoviral transduction (Ad5-NR1H3 with Ad-hCAR)
T1 sequence (Q13133 1-447): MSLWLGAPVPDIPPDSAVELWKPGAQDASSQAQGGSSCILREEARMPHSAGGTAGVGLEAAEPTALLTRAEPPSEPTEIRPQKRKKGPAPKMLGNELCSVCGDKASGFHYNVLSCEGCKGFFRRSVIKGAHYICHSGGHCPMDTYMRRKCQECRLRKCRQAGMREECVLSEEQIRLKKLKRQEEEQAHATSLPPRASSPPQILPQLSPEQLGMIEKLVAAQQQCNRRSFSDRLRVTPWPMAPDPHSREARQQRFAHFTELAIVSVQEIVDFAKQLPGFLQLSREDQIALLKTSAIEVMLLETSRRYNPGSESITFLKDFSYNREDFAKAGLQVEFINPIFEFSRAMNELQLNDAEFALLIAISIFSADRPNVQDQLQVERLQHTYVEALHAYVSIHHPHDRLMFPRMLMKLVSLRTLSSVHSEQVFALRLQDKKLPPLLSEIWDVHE
Experimental: 100,000 MPCs are seeded in each well of a 6 well plate in 2 ml MPC medium, containing 10% FCS. The next day, after incubation at 37° C., 10% CO2 in a humidified incubator, cells are co-infected with AdC15-hCAR (final MOI of 750) and Ad-NR5A2, Ad-NR1H3+T0901317 (1 μM) or Ad-BMP2 (positive control) or Ad-eGFP or Ad-luciferase as negative controls (final MOIs of 1250 and 2500). Cells are incubated at 37° C., 10% CO2 in a humidified incubator for a further six days unless cells are already harvested for RNA isolation. Virus is removed and replaced by 2 ml fresh OS medium (proprietary medium containing 10% FCS). Over the next 3 weeks, medium is refreshed 3 times per 2 weeks. Every other time, medium is refreshed half or completely. Monolayers are harvested at several time points (see FIG. 15), total RNA is harvested and quantified and rtRT-PCRs are run as follows: monolayers are washed with ice cold PBS and harvested by adding SV RNA Lysis Buffer. Total RNA is prepared using the SV Total RNA isolation System (Promega, Cat # Z3100). RNA concentration is measured with the Ribogreen RNA Quantification kit (Molecular Probes, Leiden, The Netherlands, Cat No. R-11490). cDNA synthesis is performed using 20 ng total RNA per reaction using the TaqMan Universal PCR Master Mix, No AmpErase UNG, kit (Applied Biosystems, Warrington, UK, Part number 4324018). For each reverse transcriptase (RT) reaction a minus-RT reaction (negative control: no enzyme included in the reaction) is performed. The real-time reverse transcriptase (rtRT)-PCR reaction is performed with gene specific primers on both cDNA and minus-RT samples, using the SYBR Green PCR Master Mix (Applied Biosystems, Warrington, UK, Part number 4309155). Primers are quality controlled by performing PCR reactions on human genomic DNA and on plasmids containing the cDNA encoded by the gene studied if available. If the quality is unsatisfactory, additional primers are designed or validated primer sets are purchased (ABI). For the normalization of the expression levels a RT-PCR reaction is performed on human P-actin using the Human P-actin kit (Applied Biosystems, Warrington, UK, Part number 4310881E). The following program is run on a real-time PCR apparatus (ABI PRISM 7000 Sequence Detection System): 10 min at 25° C., 30 min at 48° C., 5 min at 95° C.
Expression levels for osteogenic marker genes are first normalized for beta-actin levels. The resulting data for Ad-BMP2, Ad-NR5A2 and Ad-NR1H3+T0901317 (1 μM) samples are then compared to those of Ad-eGFP or Ad-luciferase negative control samples, harvested at the same time points, for cells infected at the same MOI.

[2] = biological target: T1, NR1H3; experiment: Alkaline phosphatase (AP) assay in MPCs infected with Ad-NR1H3 and treated with ligand; format: cell-based
Experimental: Cellular AP activity is determined 6 days after the infection (or ligand addition—see below). The principle of the assays is depicted in FIG. 2. Mesenchymal stem cells derived from bone marrow are infected with the FLeXSelect™ cDNA library viruses in the presence of Ad5C15-hCAR or Ad5C20-hCAR virus. Six days after the start of infection or treatment with a ligand, endogenous alkaline phosphatase activity is measured following addition of 4-methylumbelliferyl […] (MUP) substrate.
The stocks of the Ad-control-viruses are generated in 96 well plates (control plate). The 2 μl volume corresponds to a theoretical MOI of 5000. Controls are: P1=Ad-BMP2; P2=Ad-H4-2; P3=Ad-H4-291; N1=Ad-LacZ; N2=Ad-empty; N3=Ad-eGFP. Up-regulation of alkaline phosphatase is read at 6 days post infection (6 dpi): 15 μl 4-Methylumbelliferyl-phosphate (MUP, Sigma) is added to each well, the plates are incubated for 15 min at 37° C. and monitored for AP activity using a fluorescence plate reader (Fluostar, BMG).
These dose-response curves are depicted in FIG. 5. […] MPCs are seeded on day 0 at 1000 cells per well of a 384 well plate and co-infected the next day using AdC51-hCAR (MOI 250) and different MOIs of Ad5-NR1H3 (MOI 12000, 4000, 1333, 444).
After 6 days, medium is removed and replaced with fresh medium containing the same concentrations of the compound GW3965. Readouts of AP activity are performed at several time points after the start of the experiment, typically after 7, 10 and 13 days.
After 6 days, medium is removed and replaced with fresh medium containing the same concentrations of the compound APD.

O=S(=O)(c1ccccc1)N(CC(F)(F)F)c1ccc(C(O)(C(F)(F)F)C(F)(F)F)cc1 [T0901317]
BAP mRNA expression [1]: up-regulated
PTHR1 mRNA expression [1]: up-regulated
RANKL mRNA expression [1]: up-regulated
aromatase mRNA expression [1]: up-regulated
osteopontin mRNA expression [1]: up-regulated
induction of AP activity in MPC isolates from 4 different donors ([2]; Ad-NR1H3 MOI 2500 + T0901317 at different concentrations, 6 days): induce AP activity to similar extents
up-regulation of endogenous alkaline phosphatase (AP) activity ([2]; MPCs infected with Ad-NR1H3, increasing ligand concentrations, MUP fluorescence readout): dose-dependently increase

From patent US20060014231A1, “Methods and compositions to promote bone homeostasis” (priority 2004, published 2006)
